Paper PMC5082600, “New furoisocoumarins and isocoumarins from the mangrove endophytic fungus Aspergillus sp. 085242” (Beilstein Journal of Organic Chemistry, 2016)
pEC50: −log10 of the molar value.

What was measured:
[1] = DPPH free radical scavenging assay; settings: DPPH 150 μM in MeOH, 30 min, room temperature, absorbance at 490 nm; vitamin C as positive control
Description: The assay for DPPH radical scavenging activity was measured by a reported method, with slight modifications. Firstly, 180 μL of DPPH^· (150 μM in MeOH) and 20 μL of a series of test compound solutions (31.2, 62.5, 125, 250, 500 μM in MeOH) were mixed in each well of a 96-well microtiter plate. The reaction was measured by determination of the absorbance Asample+DPPH· using a microtiter plate reader at 490 nm after shaking for 30 min at room temperature in the dark. Twenty μL test samples of each concentration with 180 μL of MeOH were used as the blank measurement for each tested compound, and the absorbance was recorded as Asample. The absorbance of the mixture of 20 μL of MeOH and 180 μL of DPPH^· was recorded as ADPPH·, and the absorbance of the 200 μL of MeOH was measured as Ablank. The natural antioxidant vitamin C was used as a positive control. Calculations of the DPPH^· scavenging activity was performed according to the following equation: scavenging activity (%) = [1 − (Asample+DPPH· − Asample)/(ADPPH· − Ablank)] × 100%. All measurements were done in triplicate from two independent experiments. The reported EC50 was the average value of two independent experiments.

pEC50 [1] | melting point [°C] | SMILES
3.90 | – | CC(C)=C1Oc2c(ccc3cc(C)oc(=O)c23)C1=O [Compound 1, 7-methyl-2-(propan-2-ylidene)-9H-furo[3,2-h]isochromene-3,9(2H)-dione]
– | 179.4 to 181.4 | CC(C)[C@H]1Oc2c(ccc3c2C(=O)O[C@H](C)C3)[C@H]1O [Compound 2, asperisocoumarin B]
3.89 | – | CC(C)c1cc2ccc3c(c2o1)C(=O)O[C@H](C)C3 [Compound 3, (R)-2-isopropyl-7-methyl-6,7-dihydro-9H-furo[3,2-h]isochromen-9-one]
– | 201.1 to 203 | COc1cc2c(c(O)c1COCc1c(OC)cc3c(c1O)C(=O)OCC3)C(=O)OCC2 [Compound 6, asperisocoumarin F]
4.46 | – | O=C1O[C@H]([C@@H](O)CO)C(O)=C1O [vitamin C, reference compound]
